Measured values: publication PMC3670929, “Zn(II)-Chlorido Complexes of Phytohormone Kinetin and Its Derivatives Modulate Expression of Inflammatory Mediators in THP-1 Cells” (PLoS ONE, 2013)

Tested on: IL-1β
Test: LPS-induced IL-1β secretion in THP-1 macrophage-like cells (ELISA)
Format: cell-based, human
Settings: complexes 5 µM, prednisone 1 µM, 1 h pre-treatment, 24 h after LPS
Method: To determine the influence of the tested complexes on the TNF-α and IL-1β secretions and MMPs activity, macrophage-like cells derived from the THP-1 cell line were used. The cells were cultivated as above, but were split into 24-well microtitre plates to get a concentration of 100 000 cells/mL (1 mL/well) and the differentiation to macrophages was induced by phorbol myristate acetate (PMA) as described previously. Differentiated macrophages were pre-treated for 1 h with 5 µM solutions of the tested complexes or 1 µM prednisone dissolved in DMSO [the final DMSO concentration was 0.1% (v/v)] and with the 0.1% (v/v) DMSO solution itself (the experimental group called vehicle); the given concentrations of the compounds lack the cytotoxic effect. The inflammatory response was triggered by adding 1 µg/mL Escherichia coli 0111:B4 lipopolysaccharide (LPS) (Sigma-Aldrich, Germany) dissolved in water to pre-treated macrophages, control cells were without the LPS treatment. Each experiment was performed in triplicate. Macrophages, which were pre-treated with the tested compounds for 1 h, were incubated with LPS for the next 24 h. Then, the medium was collected and the concentrations of TNF-α and IL-1β were measured by an Instant ELISA kit (eBioscience, Austria) according to the manufacturer’s manual.

In the case of `C[C@]12C=CC(=O)C=C1CC[C@@H]1[C@@H]2C(=O)C[C@@]2(C)[C@H]1CC[C@]2(O)C(=O)CO` [prednisone, reference compound], the “decrease of IL-1β secretion, factor in comparison with the vehicle-treated cells” value is reported as 2.42 times.
